Data: patent US6987004B1, “Genes integrating signal transduction pathways” (Massachusetts Institute of Technology, priority 1998, dated 2006)

Legend:
[1] = target: Rap1A as a fusion protein to glutathione S-transferase (pEBG-Krev1) (UniProt P62834)
[2] = target: T1, CalDAG-GEFI (Mus musculus, UniProt Q9QUG9); experiment: Guanine nucleotide exchange activity in intact 293T cells cotransfected with mouse CalDAG-GEFI and GST-tagged Rap1A; assay type: cell-based; details: 10 μM A23187 or 1 μM TPA for 3 min
T1 construct: expressed in transfected cells; host or cells: 293T cells
T1 sequence (Q9QUG9 with tags, fused parts or gaps M73V/I83V/Q99P/R233K/C339S/E542D/S598T limits assumed): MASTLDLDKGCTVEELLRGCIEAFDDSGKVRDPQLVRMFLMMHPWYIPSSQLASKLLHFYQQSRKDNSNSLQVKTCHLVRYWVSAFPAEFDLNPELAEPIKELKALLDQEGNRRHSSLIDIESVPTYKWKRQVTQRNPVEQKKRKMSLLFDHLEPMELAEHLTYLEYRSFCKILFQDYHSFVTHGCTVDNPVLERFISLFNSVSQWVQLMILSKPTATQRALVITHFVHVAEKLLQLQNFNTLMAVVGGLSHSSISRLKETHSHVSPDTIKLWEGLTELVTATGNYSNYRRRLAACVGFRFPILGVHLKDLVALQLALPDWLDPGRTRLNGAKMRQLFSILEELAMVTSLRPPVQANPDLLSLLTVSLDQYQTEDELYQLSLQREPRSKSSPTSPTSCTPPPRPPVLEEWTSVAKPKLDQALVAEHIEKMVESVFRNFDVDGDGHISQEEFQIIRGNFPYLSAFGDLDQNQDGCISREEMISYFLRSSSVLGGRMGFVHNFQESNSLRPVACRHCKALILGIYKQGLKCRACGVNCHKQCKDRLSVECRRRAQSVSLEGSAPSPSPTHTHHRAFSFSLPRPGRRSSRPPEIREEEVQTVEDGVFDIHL
Description: (§1) To determine the small G protein target of CalDAG-GEFI, guanine nucleotide exchange activity in vivo was analyzed using intact 293T cells cotransfected with a eukaryotic expression construct of mouse CalDAG-GEFI and GST-tagged Ras family proteins. Full-length mouse CalDAG-GEFI cDNA inserted into a pCMV-SPORT expression vector with a carboxy-terminal FLAG epitope was used for transfection. A PCR-amplified fragment of rat CalDAG-GEFII was subcloned into a pCAGGS expression vector with the addition of His6-tag at its amino-terminus, resulting in pCAGGS-His-CalDAGII. pEBG-Krev1 that expresses Rap1A was used as a fusion protein to glutathione S-transferase (GST) in mammalian cells, as described in Gotoh et al., 15 Mol. Cell Biol. 6746–53 (1995), pEBG-R-Ras, other vectors for Ras-family proteins obtained by inserting PCR-amplified cDNAs into pEBG expression vector, pCAGGS-C3G and pCAGGS-MSos1, and pCEV-H-RasVl2.
To determine the effect of CalDAG-GEFI on the Erk/MAP kinase cascade, Elk1 activation was measured in 293T cells transfected with CalDAG-GEFI or constitutively active H-Ras (RasV12), or both. […] 293T cells were transfected with pFR-Luc and pFA-Elk1 with various expression vectors, and light output was detected and analyzed by the use of LAS1000 film.

[3] = target: T2, CalDAG-GEFII (Rattus norvegicus, UniProt Q9R1K8); experiment: Guanine nucleotide exchange activity in 293T cells transfected with CalDAG-GEFII (H-Ras activation); assay type: cell-based
T2 construct: expressed in transfected cells; host or cells: 293T cells
T2 sequence (Q9R1K8 1-795): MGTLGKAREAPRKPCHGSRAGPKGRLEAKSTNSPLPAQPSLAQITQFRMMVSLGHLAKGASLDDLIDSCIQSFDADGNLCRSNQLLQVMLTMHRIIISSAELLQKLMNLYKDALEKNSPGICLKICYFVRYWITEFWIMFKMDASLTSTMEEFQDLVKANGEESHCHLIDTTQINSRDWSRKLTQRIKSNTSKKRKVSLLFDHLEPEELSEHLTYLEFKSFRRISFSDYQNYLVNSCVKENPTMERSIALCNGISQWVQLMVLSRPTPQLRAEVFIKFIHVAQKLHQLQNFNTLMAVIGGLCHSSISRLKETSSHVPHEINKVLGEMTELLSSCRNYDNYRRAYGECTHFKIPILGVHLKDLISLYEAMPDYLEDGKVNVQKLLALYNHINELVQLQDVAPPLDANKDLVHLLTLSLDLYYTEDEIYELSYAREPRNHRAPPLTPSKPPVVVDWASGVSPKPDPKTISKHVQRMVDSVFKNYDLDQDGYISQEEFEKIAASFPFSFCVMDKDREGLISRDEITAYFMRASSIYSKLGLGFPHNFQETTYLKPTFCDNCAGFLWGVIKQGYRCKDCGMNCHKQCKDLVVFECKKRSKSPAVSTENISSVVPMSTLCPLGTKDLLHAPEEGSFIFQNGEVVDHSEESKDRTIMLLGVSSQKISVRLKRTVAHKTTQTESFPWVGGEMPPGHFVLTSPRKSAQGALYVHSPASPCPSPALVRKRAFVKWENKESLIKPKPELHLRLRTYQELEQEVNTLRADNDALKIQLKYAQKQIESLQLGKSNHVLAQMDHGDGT
Description: as §1
To determine the effect of CalDAG-GEFI on the Erk/MAP kinase cascade, Elk1 activation was measured in 293T cells transfected with CalDAG-GEFI or constitutively active H-Ras (RasV12), or both. […] 293T cells were transfected with pFR-Luc and pFA-Elk1 with various expression vectors, and light output was detected and analyzed by the use of LAS1000 film. […]

[4] = target: T3, cAMP-GEFI (Rattus norvegicus, UniProt Q9Z1C8); experiment: cAMP agarose affinity bead binding assay; details: excess amounts of competitor; in vitro translated cAMP-GEFI
T3 sequence (Q9Z1C8 43-926 limits assumed): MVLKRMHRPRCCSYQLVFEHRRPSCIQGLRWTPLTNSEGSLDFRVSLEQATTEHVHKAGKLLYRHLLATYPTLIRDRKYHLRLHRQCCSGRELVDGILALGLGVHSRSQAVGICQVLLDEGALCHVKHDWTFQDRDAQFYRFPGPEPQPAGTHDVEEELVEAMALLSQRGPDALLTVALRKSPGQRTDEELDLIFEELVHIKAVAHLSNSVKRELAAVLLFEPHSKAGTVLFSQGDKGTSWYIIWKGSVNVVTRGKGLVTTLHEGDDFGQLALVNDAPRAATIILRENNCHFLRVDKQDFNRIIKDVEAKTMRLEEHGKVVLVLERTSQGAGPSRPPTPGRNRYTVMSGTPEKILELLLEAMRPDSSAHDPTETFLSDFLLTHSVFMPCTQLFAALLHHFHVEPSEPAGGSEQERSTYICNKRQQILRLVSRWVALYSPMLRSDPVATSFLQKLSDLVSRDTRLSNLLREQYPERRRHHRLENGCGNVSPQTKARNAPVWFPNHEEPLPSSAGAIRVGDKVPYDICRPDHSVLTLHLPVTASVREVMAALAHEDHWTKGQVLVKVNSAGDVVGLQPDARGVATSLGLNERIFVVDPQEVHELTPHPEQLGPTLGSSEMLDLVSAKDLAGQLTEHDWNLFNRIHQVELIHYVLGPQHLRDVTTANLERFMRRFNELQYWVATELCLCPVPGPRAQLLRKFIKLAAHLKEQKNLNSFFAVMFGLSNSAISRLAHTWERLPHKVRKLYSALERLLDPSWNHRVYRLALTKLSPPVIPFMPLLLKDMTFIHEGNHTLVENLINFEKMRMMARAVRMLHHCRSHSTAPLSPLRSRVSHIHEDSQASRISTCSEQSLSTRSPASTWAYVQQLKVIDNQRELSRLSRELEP

[5] = system: Elk1; experiment: Elk1 activation in 293T cells (PathDetect Elk1 transreporting system); assay type: cell-based; details: for Activation of Elk1 by the GEF itself: 293T cells transfected with the GEF
Description: To determine the effect of CalDAG-GEFI on the Erk/MAP kinase cascade, Elk1 activation was measured in 293T cells transfected with CalDAG-GEFI or constitutively active H-Ras (RasV12), or both. 293T cells were transfected by SuperFect (Qiagen) as described in Gotoh, supra, with expression vectors for GST-tagged Ras family proteins and with those for various GEFs. Cells were labeled 24 hours after transfection with ^32Pi for 2 hr. In some experiments, cells were stimulated with either 10 μM A23187 or 1 μM phorbol-12-myristate-13-acetate (TPA) for 3 min. GST-tagged Ras family proteins were collected from cell lysates with glutathione Sepharose. Guanine nucleotides bound to Ras family proteins were separated by thin layer chromatography (TLC). Activation of Elk1 was examined by the PathDetect Elk1 transreporting system (Stratagene). 293T cells were transfected with pFR-Luc and pFA-Elk1 with various expression vectors, and light output was detected and analyzed by the use of LAS1000 film.

Rap1A as a fusion protein to glutathione S-transferase (pEBG-Krev1), sequence (P62834 whole entry, the tested form may be a part): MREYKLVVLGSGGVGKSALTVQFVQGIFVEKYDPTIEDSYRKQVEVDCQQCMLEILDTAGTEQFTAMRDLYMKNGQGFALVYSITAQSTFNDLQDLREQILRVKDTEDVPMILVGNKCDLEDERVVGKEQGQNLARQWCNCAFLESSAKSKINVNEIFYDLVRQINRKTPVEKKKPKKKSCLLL

## cAMP-GEFI (wild type)
[1]
  time-course of the activation of Rap1A by forskolin/IBMX in cAMP-GEFI transfectants: the activation began within 10 sec, reached a maximum at 5 min, and continued for at least 60 min

## CCCCCCCCCCCCCC(=O)O[C@@H]1[C@@H](C)[C@@]2(O)[C@@H](C=C(CO)C[C@]3(O)C(=O)C(C)=C[C@@H]23)[C@@H]2C(C)(C)[C@]12OC(C)=O [TPA, phorbol-12-myristate-13-acetate]
[2]
  Effect on CalDAG-GEFI-induced increase in GTP-bound Rap1A: augmented
[3]
  Effect on CalDAG-GEFII H-Ras activation: enhanced

## CNc1ccc2oc(C[C@H]3O[C@@]4(CC[C@H]3C)O[C@H]([C@H](C)C(=O)c3ccc[nH]3)[C@H](C)C[C@H]4C)nc2c1C(=O)O [A23187]
[2]
  Effect on CalDAG-GEFI-induced increase in GTP-bound Rap1A: augmented
[3]
  Effect on CalDAG-GEFII H-Ras activation: enhanced

## Nc1ncnc2c1nc(Br)n2[C@@H]1O[C@@H]2COP(=O)(O)O[C@H]2[C@H]1O [8-Br-cAMP]
[4]
  Competition of radiolabeled cAMP-GEFI binding to cAMP agarose beads: competed

B1: CalDAG-GEFI: guanine nucleotide exchange factor with Ca2+ and DAG binding domains, substrate Rap1A; mouse cDNA expressed in 293T cells (protein)
chain: MASTLDLDKGCTVEELLRGCIEAFDDSGKVRDPQLVRMFLMMHPWYIPSSQLASKLLHFYQQSRKDNSNSLQVKTCHLVRYWVSAFPAEFDLNPELAEPIKELKALLDQEGNRRHSSLIDIESVPTYKWKRQVTQRNPVEQKKRKMSLLFDHLEPMELAEHLTYLEYRSFCKILFQDYHSFVTHGCTVDNPVLERFISLFNSVSQWVQLMILSKPTATQRALVITHFVHVAEKLLQLQNFNTLMAVVGGLSHSSISRLKETHSHVSPDTIKLWEGLTELVTATGNYSNYRRRLAACVGFRFPILGVHLKDLVALQLALPDWLDPGRTRLNGAKMRQLFSILEELAMVTSLRPPVQANPDLLSLLTVSLDQYQTEDELYQLSLQREPRSKSSPTSPTSCTPPPRPPVLEEWTSVAKPKLDQALVAEHIEKMVESVFRNFDVDGDGHISQEEFQIIRGNFPYLSAFGDLDQNQDGCISREEMISYFLRSSSVLGGRMGFVHNFQESNSLRPVACRHCKALILGIYKQGLKCRACGVNCHKQCKDRLSVECRRRAQSVSLEGSAPSPSPTHTHHRAFSFSLPRPGRRSSRPPEIREEEVQTVEDGVFDIHL
[5]; 293T cells cotransfected with constitutively active H-Ras (RasV12)
  Reduction of RasV12 activation of Elk1: approximately 4 fold
[5]
  Activation of Elk1 by the GEF itself: did not itself activate Elk1

B2: CalDAG-GEFII: guanine nucleotide exchange factor activating H-Ras and R-Ras; rat cDNA expressed in 293T cells (protein)
chain: MGTLGKAREAPRKPCHGSRAGPKGRLEAKSTNSPLPAQPSLAQITQFRMMVSLGHLAKGASLDDLIDSCIQSFDADGNLCRSNQLLQVMLTMHRIIISSAELLQKLMNLYKDALEKNSPGICLKICYFVRYWITEFWIMFKMDASLTSTMEEFQDLVKANGEESHCHLIDTTQINSRDWSRKLTQRIKSNTSKKRKVSLLFDHLEPEELSEHLTYLEFKSFRRISFSDYQNYLVNSCVKENPTMERSIALCNGISQWVQLMVLSRPTPQLRAEVFIKFIHVAQKLHQLQNFNTLMAVIGGLCHSSISRLKETSSHVPHEINKVLGEMTELLSSCRNYDNYRRAYGECTHFKIPILGVHLKDLISLYEAMPDYLEDGKVNVQKLLALYNHINELVQLQDVAPPLDANKDLVHLLTLSLDLYYTEDEIYELSYAREPRNHRAPPLTPSKPPVVVDWASGVSPKPDPKTISKHVQRMVDSVFKNYDLDQDGYISQEEFEKIAASFPFSFCVMDKDREGLISRDEITAYFMRASSIYSKLGLGFPHNFQETTYLKPTFCDNCAGFLWGVIKQGYRCKDCGMNCHKQCKDLVVFECKKRSKSPAVSTENISSVVPMSTLCPLGTKDLLHAPEEGSFIFQNGEVVDHSEESKDRTIMLLGVSSQKISVRLKRTVAHKTTQTESFPWVGGEMPPGHFVLTSPRKSAQGALYVHSPASPCPSPALVRKRAFVKWENKESLIKPKPELHLRLRTYQELEQEVNTLRADNDALKIQLKYAQKQIESLQLGKSNHVLAQMDHGDGT
modifications: left off: small tags and cut ends
notes: rat cDNA expressed in 293T cells
[5]
  Activation of Elk1 by the GEF itself: increased the transcriptional activity of Elk1
